{
  "source": "patent US20180326101A1",
  "about": "“COMPOUND AND PHARMACEUTICAL COMPOSITION FOR TARGETED DRUG DELIVERY” (SeeCure Taiwan Co., Ltd., priority 2017, published 2018)",
  "biological_target": "T1, XC transporter (Homo sapiens, UniProt Q9UPY5)",
  "T1 construct": "endogenous in cells; host or cells: U251 cell line",
  "T1 sequence (Q9UPY5 1-501)": "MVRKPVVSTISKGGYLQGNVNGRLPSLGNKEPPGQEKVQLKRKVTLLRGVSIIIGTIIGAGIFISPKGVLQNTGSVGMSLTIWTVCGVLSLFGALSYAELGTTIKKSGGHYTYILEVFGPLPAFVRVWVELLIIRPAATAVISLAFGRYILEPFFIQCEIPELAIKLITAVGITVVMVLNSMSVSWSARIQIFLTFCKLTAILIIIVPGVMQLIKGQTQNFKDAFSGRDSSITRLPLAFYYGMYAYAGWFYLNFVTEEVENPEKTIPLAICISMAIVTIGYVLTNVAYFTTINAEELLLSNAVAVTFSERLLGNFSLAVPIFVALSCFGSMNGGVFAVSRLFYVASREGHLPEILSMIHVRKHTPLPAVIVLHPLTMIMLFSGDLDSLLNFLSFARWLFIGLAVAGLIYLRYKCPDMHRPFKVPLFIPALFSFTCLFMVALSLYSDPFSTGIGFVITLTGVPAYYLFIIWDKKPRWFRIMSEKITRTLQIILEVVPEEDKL",
  "T1 sequence (P08195 1-529 partner)": "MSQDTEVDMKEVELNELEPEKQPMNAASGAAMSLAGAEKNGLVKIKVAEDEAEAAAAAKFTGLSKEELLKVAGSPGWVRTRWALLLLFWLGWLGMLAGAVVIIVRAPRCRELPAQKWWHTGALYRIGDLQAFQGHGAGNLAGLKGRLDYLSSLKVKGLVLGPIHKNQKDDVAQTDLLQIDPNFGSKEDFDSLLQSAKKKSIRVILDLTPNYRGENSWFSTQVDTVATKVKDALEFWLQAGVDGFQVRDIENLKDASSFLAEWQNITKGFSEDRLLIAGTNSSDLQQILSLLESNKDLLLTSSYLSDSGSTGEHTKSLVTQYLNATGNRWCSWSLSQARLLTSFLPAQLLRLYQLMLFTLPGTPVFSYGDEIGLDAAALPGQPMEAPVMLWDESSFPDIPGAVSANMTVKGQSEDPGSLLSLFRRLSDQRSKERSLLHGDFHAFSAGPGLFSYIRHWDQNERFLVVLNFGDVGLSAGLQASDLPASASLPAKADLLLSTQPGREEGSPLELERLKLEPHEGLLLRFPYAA",
  "assay": "Blocking studies of cellular uptake with sulfasalazine (SAS) or cysteine",
  "type": "cell-based",
  "conditions": "U251 cells, 2 hours incubation",
  "method": "The cellular uptake of the ^99mTc-SAC-A and the ^99mTc-SAC-B compounds were performed using an U251 cell line. The cells were planted onto tissue culture plates at a concentration of 350,000 cells per well for the uptake and blocking studies. The cells were cultured in Eagle's MEM with Earle's BSS (90%) and fetal bovine serum (10%) under standard culture conditions (37° C., 95% humidified air and 5% CO2). After seeding, the cells were incubated at 37° C. for 48 hours to allow for cell attachment and growth. After reaching approximately 70% confluency of cells, the cells are ready for use in the cellular uptake/blocking experiments.\nSpecifically, upon reaching 70% cell confluency, the growth media were aspirated and the cells were washed twice with phosphate buffered saline (PBS). Serum-free media and the ^99mTc-SAC-A compound or ^99mTc-SAC-B compound obtained above were respectfully added to the each of the wells for performing the cellular uptake experiment. For the blocking studies, the cells were pre-treated with 500 μM and 1000 μM of sulfasalazine (SAS; a XC transporter specific inhibitor) or 500 μM and 1000 μM of cysteine (a competitive inhibitor) for 30 minutes prior to the addition of the ^99mTc-SAC-A or ^99mTc-SAC-B compounds. […] After 2 hours, the cells in each of the wells are washed with PBS, the cells are then collected and its radioactivity were counted using a gamma counter. […]",
  "data": [
    {"smiles": "N[C@@H](CS[C@@H](CC(=O)O)C(=O)O)C(=O)O", "note": "[SAC-B]", "values": [
      {"measurement": "cellular uptake when blocking agent cysteine (competitive inhibitor) was added", "setting": "500 μM and 1000 μM cysteine pre-treatment 30 min", "result": "mostly inhibited"},
      {"measurement": "cellular uptake when blocking agent SAS (XC transporter specific inhibitor) was added", "setting": "500 μM and 1000 μM sulfasalazine pre-treatment 30 min", "result": "mostly inhibited"}
    ]}
  ]
}
